Data set [1] can be described thus: in vitro. Particulars: pig.
A short description of data set [2]: in vitro. Particulars: African green monkey.
A short description of data set [3]: in vitro. The settings on record: African green monkey. The source holds these as a separate data set.
The test system of a further data set is WNV. Kind of data set: microbe, parasite or virus in culture. The format is cell-based, West Nile virus strain Strix nebulosa-12. The settings on record: West Nile virus, Vero, read-out: WNV EC50.
A short description of data set [4]: in vitro. The settings on record: pig. The source holds these as a separate data set.
For the next data set, the system named is TBEV. Kind of data set: microbe, parasite or virus in culture. The format is cell-based, Tick-borne encephalitis virus strain Absettarov. Particulars: Tick-borne encephalitis virus, PEK, read-out: TBEV EC50.
The subject of another data set is YFV. Kind of data set: microbe, parasite or virus in culture. The data set is classed as cell-based, yellow fever virus strain 17D. The settings on record: Yellow fever virus, read-out: YFV EC50.
The subject of a further data set is DENV-2. The settings on record: cited from earlier work.
The subject of another data set is DENV-3. Particulars: cited from earlier work.
For the next data set, the system named is DENV-1. The settings on record: cited from earlier work.

In the case of `O=[N+]([O-])c1ccc(S(=O)(=O)N(C2=NOC3CCCCCCC23)S(=O)(=O)c2ccc([N+](=O)[O-])cc2)cc1` (stereo not drawn) [5i, 4-Nitro-N-((4-nitrophenyl)sulfonyl)-N-(3a,4,5,6,7,8,9,9a-octahydrocycloocta[d]isoxazol-3-yl)benzenesulfonamide], the melting point fell in the range of 139 to 140 °C. Moreover, the CC50 in the data set “in vitro [1]” was 41 ± 1.8 µM. The molecule also yielded a CC50 in the data set “in vitro [2]” of more than 50 µM. In addition, the CC50 in “in vitro [3]” was more than 50 µM. The EC50 in the data set on WNV turned out to be 19 ± 11 µM. The CC50 in “in vitro [4]” is more than 50 µM. Further, the “cytotoxicity against PEK cells during 7 days of incubation (in words)” value with PEK cells was “slightly toxic”. Besides, in the data set on TBEV, the EC50 came to 19 ± 4 µM.

In the case of `O=S(=O)(Cc1ccccc1)NC1=NOC2(CCCCCCC2)C1` [3b], the CC50 in “in vitro [1]”, in “in vitro [2]”, in “in vitro [3]” and in “in vitro [4]” was more than 50 µM throughout. For the same molecule, the EC50 in the data set on YFV turned out to be 24 ± 11 µM; with WNV it was 9.9 ± 1.5 µM; in the data set with TBEV it was 13 ± 8 µM.

On to `O=S(=O)(NC1=NOC2(CCCCCCC2)C1)c1ccc2ccccc2c1` [3j], for which the CC50 in the data set “in vitro [1]” and in the data set “in vitro [4]” was more than 50 µM each time. Besides, the “acute and chronic cytotoxicity in Vero cells (in words)” value (“acute and chronic cytotoxicity” below) in the data set on Vero cells is “both acute and chronic cytotoxicity”. Further, the EC50 came out at 20.3 ± 0.3 µM in the data set on WNV and 20 ± 11 µM with TBEV.

`O=[N+]([O-])c1ccccc1S(=O)(=O)N(C1=NOC2(CCCCCCC2)C1)S(=O)(=O)c1ccccc1[N+](=O)[O-]` [4h, 2-Nitro-N-((2-nitrophenyl)sulfonyl)-N-(1-oxa-2-azaspiro[4.7]dodec-2-en-3-yl)benzenesulfonamide]: the melting point is 155 to 157 °C. Besides, in “in vitro [1]”, the CC50 was more than 50 µM. Further, the “acute and chronic cytotoxicity” value in the data set on Vero cells was “only acute toxic”. Besides, in the data set on WNV, the EC50 turned out to be 7.8 ± 1 µM. Further, the CC50 in “in vitro [4]” was more than 50 µM. In the data set on TBEV, the EC50 was 20 ± 11 µM.

Consider `O=[N+]([O-])c1ccc(S(=O)(=O)N(C2=NOC3(CCCCCCC3)C2)S(=O)(=O)c2ccc([N+](=O)[O-])cc2)cc1` [4i, 4-Nitro-N-((4-nitrophenyl)sulfonyl)-N-(1-oxa-2-azaspiro[4.7]dodec-2-en-3-yl)benzenesulfonamide], for which the melting point lay within 178 to 180 °C. In “in vitro [1]”, this molecule displayed a CC50 of more than 50 µM. In the data set with Vero cells, the “acute and chronic cytotoxicity” value is “both acute and chronic cytotoxicity”. In the data set with WNV, the EC50 turned out to be 5.3 ± 1 µM. The CC50 in the data set “in vitro [4]” is more than 50 µM. Besides, in the data set on TBEV, the EC50 came out at 2 ± 0.5 µM.

The molecule `CS(=O)(=O)N(C1=NOC2(CCCCCCC2)C1)S(C)(=O)=O` [4a, N-(Methylsulfonyl)-N-(1-oxa-2-azaspiro[4.7]dodec-2-en-3-yl)methanesulfonamide] came in with a melting point of 139 to 141 °C. The CC50 in “in vitro [1]” was more than 50 µM. For the same molecule, in the data set “in vitro [2]”, the CC50 is more than 50 µM. This molecule also yielded a CC50 in the data set “in vitro [3]” of more than 50 µM. Moreover, the EC50 in the data set on WNV was 10 ± 6 µM. Further, in “in vitro [4]”, the CC50 is more than 50 µM. For the same molecule, the EC50 in the data set on TBEV came to 27 ± 12 µM.

With `Cc1cc(C)c(S(=O)(=O)N(C2=NOC3(CCCCCCC3)C2)S(=O)(=O)c2c(C)cc(C)cc2C)c(C)c1` [4e, N-(Mesitylsulfonyl)-2,4,6-trimethyl-N-(1-oxa-2-azaspiro[4.7]dodec-2-en-3-yl)benzenesulfonamide], the melting point fell in the range of 180 to 182 °C. This molecule came in with a CC50 in the data set “in vitro [1]” of more than 50 µM. For the same molecule, the CC50 in “in vitro [2]” is more than 50 µM. This molecule also yielded a CC50 in “in vitro [3]” of more than 50 µM. Besides, the EC50 in the data set on WNV stood at 4.8 ± 1 µM. In “in vitro [4]”, the CC50 is more than 50 µM. In addition, the 50% effective concentration (EC50) in the data set on TBEV was determined as 12 ± 7 µM.

Regarding `O=S(=O)(Cc1ccccc1)N(C1=NOC2(CCCCCCC2)C1)S(=O)(=O)Cc1ccccc1` [4b, N-(Benzylsulfonyl)-1-phenyl-N-(1-oxa-2-azaspiro[4.7]dodec-2-en-3-yl)methanesulfonamide], the melting point lay within 176 to 177 °C. For the same molecule, the CC50 in the data set “in vitro [1]” is more than 50 µM. In “in vitro [2]”, the CC50 is more than 50 µM. The same molecule came in with a CC50 in the data set “in vitro [3]” of more than 50 µM. Further, in the data set on WNV, the EC50 amounted to 16 ± 8 µM. This molecule had a CC50 in the data set “in vitro [4]” of more than 50 µM. For the same molecule, the EC50 in the data set on TBEV is more than 50 µM.

Turning to `CC(C)CCN1C(=O)[C@]2(CC(=O)Nc3c2nnn3[C@@H](C)c2ccc(Cl)cc2)c2cc(Cl)ccc21` [JMX0254], the EC50 in the data set on DENV-2 was 0.16 µM; in the data set with DENV-3, 0.035 µM; in the data set with DENV-1, 0.78 µM.

In turn, `O=S(=O)(c1ccc2ccccc2c1)N(C1=NOC2CCCCCCC12)S(=O)(=O)c1ccc2ccccc2c1` (stereo not drawn) [5j, N-(Naphthalen-2-ylsulfonyl)-N-(3a,4,5,6,7,8,9,9a-octahydrocycloocta[d]isoxazol-3-yl)naphthalene-2-sulfonamide] showed a melting point of 160 to 162 °C. The molecule further registered a CC50 in “in vitro [1]” of more than 50 µM. In “in vitro [2]”, this molecule yielded a CC50 of more than 50 µM. Also, the CC50 in the data set “in vitro [3]” was more than 50 µM. Moreover, the EC50 in the data set on WNV is 5.9 ± 1.8 µM. Moreover, the CC50 in the data set “in vitro [4]” was more than 50 µM. The EC50 in the data set with TBEV was determined as 10 ± 2.4 µM.

Consider `O=S(=O)(c1cccs1)N(C1=NOC2CCCCCCC12)S(=O)(=O)c1cccs1` (stereo not drawn) [5k, N-(3a,4,5,6,7,8,9,9a-Octahydrocycloocta[d]isoxazol-3-yl)-N-(thiophen-2-ylsulfonyl)thiophene-2-sulfonamide], for which the melting point lay within 131 to 132 °C. In addition, in the data set “in vitro [1]”, the CC50 is more than 50 µM. The “acute and chronic cytotoxicity” value in the data set on Vero cells was “both acute and chronic cytotoxicity”. Besides, the EC50 with WNV is 18 ± 4 µM. The molecule further displayed a CC50 in the data set “in vitro [4]” of more than 50 µM. Also, in the data set on TBEV, the EC50 worked out at 20 ± 3 µM.

With `O=S(=O)(c1cccs1)N(C1=NOC2(CCCCCCC2)C1)S(=O)(=O)c1cccs1` [4k, N-(1-Oxa-2-azaspiro[4.7]dodec-2-en-3-yl)-N-(thiophen-2-ylsulfonyl)thiophene-2-sulfonamide], the melting point stood at 147 °C. For the same molecule, the CC50 in the data set “in vitro [1]” is more than 50 µM. In the data set “in vitro [2]”, this molecule displayed a CC50 of more than 50 µM. This molecule came in with a CC50 in “in vitro [3]” of more than 50 µM. For the same molecule, the EC50 in the data set with WNV was determined as 10 ± 4 µM. For the same molecule, the CC50 in “in vitro [4]” was more than 50 µM. In addition, in the data set with TBEV, the EC50 was more than 50 µM.

`Cc1cc(C)c(S(=O)(=O)N(C2=NOC3CCCCCCC23)S(=O)(=O)c2c(C)cc(C)cc2C)c(C)c1` (stereo not drawn) [5e, N-(Mesitylsulfonyl)-2,4,6-trimethyl-N-(3a,4,5,6,7,8,9,9a-octahydrocycloocta[d]isoxazol-3-yl)benzenesulfonamide] showed a melting point of 148 to 149 °C. In the data set “in vitro [1]”, the CC50 was more than 50 µM. Also, the CC50 in the data set “in vitro [2]” was more than 50 µM. In “in vitro [3]”, this molecule had a CC50 of more than 50 µM. The EC50 in the data set on WNV turned out to be 4 ± 0.6 µM. Moreover, the CC50 in the data set “in vitro [4]” is more than 50 µM. The concentration giving a half-maximal response (EC50) in the data set with TBEV was 10 ± 5 µM.

Turning to `Cc1ccc(S(=O)(=O)N(C2=NOC3CCCCCCC23)S(=O)(=O)c2ccc(C)cc2)cc1` (stereo not drawn) [5d, 4-Methyl-N-(3a,4,5,6,7,8,9,9a-octahydrocycloocta[d]isoxazol-3-yl)-N-tosylbenzenesulfonamide], the melting point was in the range of 113 to 114 °C. The molecule further showed a CC50 in “in vitro [1]” of more than 50 µM. The molecule further had a CC50 in “in vitro [2]” of more than 50 µM. This molecule also displayed a CC50 in the data set “in vitro [3]” of more than 50 µM. Also, the EC50 in the data set with WNV stood at 14 ± 8 µM. The CC50 in the data set “in vitro [4]” was more than 50 µM. In addition, the EC50 with TBEV is 34 ± 4 µM.

Usually melting point stands for the temperature, or range, at which the solid turns liquid. In general, EC50 refers to the concentration at which the effect is half-maximal.

The values above are taken from paper PMC10341786 (International Journal of Molecular Sciences, 2023).
